Experimental data: PubChem BioAssay (NCI)
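Following 48 hours of exposure in 96-well plates, responses at five concentrations were used to interpolate endpoints linearly. The concentration for 50% growth inhibition is given as GI50. TGI denotes the concentration required for complete inhibition of growth.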

Tests used:
Experiment in all cases: DTP human tumour cell line panel, 48 h
[1] = test system: 786-0 renal
[2] = test system: EKVX NSCLC
[3] = test system: IGROV1 ovarian
[4] = test system: OVCAR-3 ovarian
[5] = test system: OVCAR-5 ovarian
[6] = test system: RPMI-8226 leukemia
[7] = test system: SK-MEL-5 melanoma
[8] = test system: SNB-19 CNS
[9] = test system: SR leukemia
[10] = test system: NCI/ADR-RES ovarian

In the case of `CC(C)=CC(=O)Oc1ccc([N+](=O)[O-])cc1`, the TGI [1] was over 100 µM, the TGI [2] was over 100 µM and the TGI [3] was over 100 µM. It also gave a TGI [4] of over 100 µM, a TGI [5] of over 100 µM and a TGI [6] of over 100 µM. The TGI [7] was over 100 µM, the TGI [8] was over 100 µM and the TGI [9] was over 100 µM.
`FC(F)(F)c1cccc(COCCN2CCN(Cc3cccc(C(F)(F)F)c3)CC2)c1` was tested, and the TGI [1] was 29.5 µM, the TGI [2] was 23.4 µM and the TGI [3] was 30.3 µM. The TGI [10] was 39.1 µM, the TGI [4] was 42.9 µM and the TGI [5] was 31.6 µM. For the same compound, the TGI [7] was 29.4 µM, the TGI [8] was 29.4 µM and the TGI [9] was over 100 µM.
Compound `Cc1cccc(C)c1NC(=O)/C(Cl)=C(/Cl)C(=O)O` has a TGI [1] of 31.3 µM, a TGI [2] of 35.7 µM and a TGI [3] of 40.8 µM. It also gave a TGI [4] of 41.8 µM, a TGI [5] of 40.6 µM and a TGI [6] of 37.1 µM. For the same compound, the TGI [7] was 34.5 µM, the TGI [8] was over 70.1 µM and the TGI [9] was over 57.1 µM.
Compound `c1ccc2[nH]c(SSc3nc4ncncc4[nH]3)nc2c1` has a GI50 [1] of 0.463 µM, a TGI [1] of over 100 µM and a GI50 [2] of 25.9 µM. The TGI [2] was over 100 µM, the GI50 [3] was 4.48 µM and the TGI [3] was 96.2 µM. For the same compound, the GI50 [10] was 1.74 µM, the TGI [10] was over 100 µM and the GI50 [4] was 0.579 µM. For the same compound, the TGI [4] was over 100 µM, the GI50 [5] was 13 µM and the TGI [5] was over 100 µM. For the same compound, the GI50 [6] was 0.709 µM, the TGI [6] was over 100 µM and the GI50 [7] was 3.62 µM. For the same compound, the TGI [7] was over 100 µM, the GI50 [8] was 64.5 µM and the TGI [8] was over 100 µM. The GI50 [9] was 0.551 µM and the TGI [9] was over 100 µM.
Work on `CCOC(=O)/C(=C\c1ccc(OCc2ccccc2)c(OC)c1)C(=O)c1ccccc1` yielded a TGI [1] of 37.7 µM, a TGI [2] of 66.2 µM and a TGI [3] of 64.6 µM. It also gave a TGI [4] of 58.1 µM, a TGI [5] of 48.6 µM and a TGI [6] of 86.5 µM. For the same compound, the TGI [7] was 31.9 µM, the TGI [8] was 66.4 µM and the TGI [9] was over 100 µM.
Work on `C=C(Cl)COC(=O)Nc1cccc(Cl)c1` yielded a TGI [1] of 92.2 µM, a TGI [2] of 59.1 µM and a TGI [3] of over 100 µM. It also gave a TGI [10] of 99.7 µM, a TGI [4] of over 100 µM and a TGI [5] of over 100 µM. For the same compound, the TGI [6] was over 100 µM, the TGI [7] was 39.6 µM and the TGI [8] was over 100 µM. For the same compound, the TGI [9] was over 100 µM.
Compound `O=C(NC1CC1)c1ccc(-c2nc3ccc4[nH]ncc4c3c3c2CCCC3)cc1` has a GI50 [1] of 2.11 µM, a TGI [1] of 12.3 µM and a GI50 [2] of 1.33 µM. For the same compound, the TGI [2] was 12.2 µM, the GI50 [3] was 0.989 µM and the TGI [3] was over 50 µM. It also gave a GI50 [10] of 6.56 µM, a TGI [10] of over 50 µM and a GI50 [4] of 4.04 µM. The TGI [4] was 15.8 µM, the GI50 [5] was 7.3 µM and the TGI [5] was 47.6 µM. The GI50 [6] was 1.08 µM, the TGI [6] was 12 µM and the GI50 [7] was 2.67 µM. The TGI [7] was 9.83 µM, the GI50 [8] was 4.47 µM and the TGI [8] was over 50 µM. It also gave a GI50 [9] of 0.987 µM and a TGI [9] of 6.02 µM.
In the case of `CN(C)CCCN=C(N)N`, the TGI [1] was over 100 µM, the TGI [2] was over 100 µM and the TGI [3] was over 100 µM. The TGI [10] was over 100 µM, the TGI [4] was over 100 µM and the TGI [5] was over 100 µM. The TGI [6] was over 100 µM, the TGI [7] was over 100 µM and the TGI [8] was over 100 µM. For the same compound, the TGI [9] was over 100 µM.
With `CC1(C)NCCC[C@]2(C)[C@H]3C=CC4=C5C[C@](C)(CO)CC[C@]5(C)CC[C@@]4(C)[C@]3(C)CC[C@@H]12` the GI50 [1] was 2.66 µM, the TGI [1] was 8.59 µM and the GI50 [2] was 2.77 µM. It also gave a TGI [2] of 8.27 µM, a GI50 [3] of 4.08 µM and a TGI [3] of 14.8 µM. The GI50 [10] was 2.02 µM, the TGI [10] was 4.52 µM and the GI50 [4] was 2.69 µM. For the same compound, the TGI [4] was 7.06 µM, the GI50 [5] was 12.4 µM and the TGI [5] was 25.3 µM. For the same compound, the GI50 [6] was 3.91 µM, the TGI [6] was 14.9 µM and the GI50 [7] was 2.14 µM. For the same compound, the TGI [7] was 4.94 µM, the GI50 [8] was 11.6 µM and the TGI [8] was 25.3 µM. It also gave a GI50 [9] of 2.42 µM and a TGI [9] of 7.17 µM.
`COc1cc(Cl)cc(-c2nn(C(=O)NCCN3CCN(C)CC3)cc2-c2ccncc2)c1` showed a GI50 [1] of 5.99 µM, a TGI [1] of 25.6 µM and a GI50 [2] of 0.971 µM. The TGI [2] was 37.1 µM, the GI50 [3] was 17.8 µM and the TGI [3] was over 100 µM. For the same compound, the GI50 [10] was 19.8 µM, the TGI [10] was 88.5 µM and the GI50 [4] was 23.6 µM. The TGI [4] was 85.9 µM, the GI50 [5] was 17.9 µM and the TGI [5] was 68.2 µM. For the same compound, the GI50 [6] was 21.9 µM, the TGI [6] was over 100 µM and the GI50 [7] was 3.76 µM. The TGI [7] was 16.7 µM, the GI50 [8] was 7.93 µM and the TGI [8] was over 100 µM. For the same compound, the GI50 [9] was 29.8 µM and the TGI [9] was over 100 µM.
In the case of `OCC(O)C(O)C(O)C1SC(c2ccccc2)=NN1c1ccccc1` (stereo not drawn), the TGI [1] was over 100 µM, the TGI [2] was over 100 µM and the TGI [3] was over 100 µM. For the same compound, the TGI [10] was over 100 µM, the TGI [4] was over 87.6 µM and the TGI [5] was over 100 µM. For the same compound, the TGI [6] was over 100 µM, the TGI [7] was over 100 µM and the TGI [8] was over 89.8 µM. For the same compound, the TGI [9] was over 100 µM.
In the case of `Nc1ccc(C(=O)c2ccc(N)c(Br)c2)cc1Br`, the GI50 [1] was 0.775 µM, the TGI [1] was 17.8 µM and the GI50 [2] was 0.536 µM. For the same compound, the TGI [2] was over 100 µM, the GI50 [3] was 0.474 µM and the TGI [3] was 18.4 µM. For the same compound, the GI50 [10] was 0.348 µM, the TGI [10] was over 46.2 µM and the GI50 [4] was 0.234 µM. The TGI [4] was 0.517 µM, the GI50 [5] was 0.701 µM and the TGI [5] was over 100 µM. It also gave a GI50 [6] of 0.346 µM, a TGI [6] of 3.73 µM and a GI50 [7] of 0.372 µM. It also gave a TGI [7] of 17.9 µM, a GI50 [8] of 0.637 µM and a TGI [8] of over 100 µM. For the same compound, the GI50 [9] was 0.253 µM and the TGI [9] was 1.35 µM.
`CC(=O)OCSc1ncnc2c1ncn2CN1CCOCC1` showed a TGI [1] of over 100 µM, a TGI [2] of over 100 µM and a TGI [3] of over 100 µM. It also gave a TGI [4] of over 100 µM, a TGI [5] of over 100 µM and a TGI [6] of over 100 µM. For the same compound, the TGI [7] was over 100 µM, the TGI [8] was over 100 µM and the TGI [9] was over 100 µM.
Work on `O=C(CNC(=O)OCc1ccccc1)Oc1ccccc1` yielded a TGI [1] of over 100 µM, a TGI [2] of over 100 µM and a TGI [3] of over 100 µM. It also gave a TGI [4] of over 100 µM, a TGI [5] of over 100 µM and a TGI [6] of over 100 µM. For the same compound, the TGI [7] was over 100 µM, the TGI [8] was over 42.7 µM and the TGI [9] was over 100 µM.
`C1CNCCNCCNCCN1` was tested, and the TGI [1] was over 100 µM, the TGI [2] was over 100 µM and the TGI [3] was over 100 µM. The TGI [4] was over 100 µM, the TGI [5] was over 100 µM and the TGI [6] was over 100 µM. The TGI [7] was over 100 µM, the TGI [8] was over 100 µM and the TGI [9] was over 100 µM.
`N#CCc1ccc(C(C#N)/C(CCCC(=O)Nc2cccc([N+](=O)[O-])c2)=N\NC(=O)NN)cc1` (stereo not drawn) was tested, and the TGI [1] was over 100 µM, the TGI [2] was over 100 µM and the TGI [3] was over 100 µM. The TGI [4] was over 100 µM, the TGI [5] was over 100 µM and the TGI [6] was over 100 µM. It also gave a TGI [7] of over 100 µM, a TGI [8] of over 100 µM and a TGI [9] of over 100 µM.
`CCC1=C[C@@H]2CN(C1)Cc1c([nH]c3ccccc13)[C@@](C(=O)OC)(c1cc3c(cc1OC)N(C=O)[C@H]1[C@@](O)(C(=O)OC)[C@H](OC(C)=O)[C@]4(CC)[C@@H]5C[C@@H]5CN5CC[C@]31[C@@H]54)C2` showed a GI50 [1] of 0.00587 µM, a TGI [1] of over 3.19 µM and a GI50 [3] of 0.00261 µM. It also gave a TGI [3] of over 6.25 µM, a GI50 [10] of 0.632 µM and a TGI [10] of over 6.25 µM. The GI50 [4] was under 0.000625 µM, the GI50 [5] was 0.00255 µM and the TGI [5] was over 6.25 µM. It also gave a GI50 [6] of under 0.000625 µM, a TGI [6] of over 6.25 µM and a GI50 [7] of 0.000921 µM. For the same compound, the TGI [7] was 0.0315 µM, the GI50 [8] was 0.00127 µM and the TGI [8] was over 6.25 µM. It also gave a GI50 [9] of under 0.000625 µM.
